The results in this text go back to patent publication US7323541B2, “Polypeptide DNA thereof and use of the same” (Takeda Pharmaceutical Company Limited, priority 2001, dated 2008).

Changes are numbered by the printed parent chain. Where no end group is shown, it is not given here.

For test [1], the target named is T1, membrane fraction of TGR23-2 expressing CHO cells (Homo sapiens, UniProt Q6W5P4, N107I/Q344R).
T1 construct: the clones having the cDNA of TGR23-2, which is contained in pTB2174, were selected; expressed in transfected cells; host or cells: hamster CHO/dhfr- cells, vector pAKKO-111H (pAKKO-TGR23-2)
T1 sequence (Q6W5P4 1-371 N107I/Q344R): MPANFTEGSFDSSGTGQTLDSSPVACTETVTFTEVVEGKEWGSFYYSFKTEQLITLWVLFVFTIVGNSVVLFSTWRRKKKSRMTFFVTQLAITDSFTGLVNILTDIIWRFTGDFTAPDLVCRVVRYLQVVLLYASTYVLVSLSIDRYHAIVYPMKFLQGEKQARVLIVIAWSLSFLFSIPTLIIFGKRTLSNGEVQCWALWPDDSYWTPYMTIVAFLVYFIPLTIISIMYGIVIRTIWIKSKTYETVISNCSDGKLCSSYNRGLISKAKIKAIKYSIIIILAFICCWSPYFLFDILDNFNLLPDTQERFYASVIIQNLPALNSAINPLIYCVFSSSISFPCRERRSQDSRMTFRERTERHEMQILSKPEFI
Kind of test: GTPγS binding activity in membrane fraction. In kind it is biochemical. As to the method: Enhancing activity of binding of [^35S]-Guanosine 5′-(γ-thio) triphosphate in the membrane fraction of TGR23-2 expressing CHO cells was measured by the following method. Firstly, it is described about preparation of membrane fraction. Twenty (20) ml of homogenation buffer (10 mM HEPES (pH7.3), 5 mM EDTA, 0.52 mM PMSF, 10 μg/ml pepstatin, 8 μg/ml E64, 20 μg/ml leupeptin) was added to 8×10^7 of TGR23-2 expressing CHO cells, and the cells were disrupted using Polytron (12,000 rpm, 30 seconds×3 times). The cell-disrupted fluids were centrifuged (1,000 g for 15 minutes) to get supernatant. Subsequently the supernatant was ultracentrifuged (Beckman type 30 rotor, 30,000 rpm, one hour), and the precipitate obtained was collected as a membrane fraction of TGR23-2 expressing CHO cells. The GTPγS binding activity was assayed as follows. The membrane fraction of TGR23-2 expressing CHO cells was diluted with membrane dilution buffer (50 mM Tris-HCl buffer (pH7.4), 5 mM MgCl2, 150 mM NaCl, 0.03% NaN3, 0.1% BSA, 1 μM GDP) to get cell membrane fraction solution for assay at the protein concentration of […]. Two (2) μl of 50 nM [^35S]-guanosine 5′-(γ-thio) triphosphate (NEN) and sample were added to 200 μl of cell membrane fraction solution for assay, and the mixture was incubated at 25° C. for one (1) hour. The mixture was filtered, and the filter was washed twice with 1.5 ml of washing buffer (50 mM Tris-HCl buffer (pH7.4), 5 mM MgCl2, 1 mM EDTA, 0.03% NaN3, 0.1% BSA). Then the radioactivity on the filter was measured by liquid scintillation counter. Human TGR23-2 ligand (1-20) prepared by the method described in Example 17, rat TGR23-2 ligand (1-18) prepared by the method described in Example 19 and mouse TGR23-2 ligand (1-20) prepared by the method described in Example 20 were administered to TGR23-2 expressing CHO cells at a variety of concentrations according to the method described above, and the GTPγS binding activity was determined.
Background: GTPγS is a poorly hydrolysed GTP analogue; its binding reports G protein activation.

Test [2] addresses T2, TGR23-1 expressing CHO cells (Homo sapiens, UniProt Q6W5P4).
T2 construct: the clones having the cDNA of TGR23-1, which is contained in pTB2173, were selected; expressed in transfected cells; host or cells: hamster CHO/dhfr- cells, vector pAKKO-111H (pAKKO-TGR23-1), clones No. 49 and No. 52
T2 sequence (Q6W5P4 1-371): T1 sequence (Q6W5P4 1-371 N107I/Q344R) with I107N, R344Q
The test is described as follows: Intracellular Ca ion concentration increasing activity using FLIPR. In kind it is cell-based. To be noted: variety of concentrations. How it is done:
An enhancing activity of intracellular Ca^2+ release was assayed using FLIPR (Molecular Devices, Inc.). The CHO/TGR23-2 cells prepared in Example 1 and selected in Example 2 were plated on 96-well plate at 3×10^4 cells/well and cultured for 24 hours. A loading buffer was prepared by adding 1 vial of Fluo 3-AM to 10 ml of Hanks' solution (pH7.4) containing 2.5 mM Probenecid and 20 mM HEPES (hereafter, Hanks' solution (pH7.4) containing 2.5 mM Probenecid and 20 mM HEPES may be referred to as a washing buffer). The culture medium was discarded from the culture plate and 100 μl/well of the loading buffer were added to the cells. Then, the cells were incubated for 60 minutes in the incubator. After the loading buffer was removed from the culture plate and the cells were washed with the washing buffer, the plate was put in place of FLIPR. A sample was prepared by adding a sample buffer, which 2 mg/ml BSA and 1 mg/ml CHAPS were added to the washing buffer, to lyophilized product, stirring and treating by ultrasonication for 30 minutes, and transferred to 96-well sample plate. This sample plate was also put in place for assay. The enhancing activity of intracellular Ca^2+ release was measured as an increase of fluorescent intensity, which is raised by addition of the sample. Human TGR23-2 ligand (1-20) obtained in Example 17 was administered to TGR23-1 expressing CHO cells and TGR23-2 expressing CHO cells at a variety of concentrations according to the method described in Example 5, and the increasing activity of intracellular Ca ion concentration was determined using FLIPR. […] Rat TGR23-2 ligand (1-18) prepared by the method described in Example 19 and mouse TGR23-2 ligand (1-20) prepared by the method described in Example 20 were administered to TGR23-1 expressing CHO cells and TGR23-2 expressing CHO cells at a variety of concentrations according to the method described in Example 5, and the increasing activity of intracellular Ca ion concentration was determined using FLIPR.

With “SFRNGVGSGVKKTSFRRA [rat TGR23-2 ligand (1-18), Ser-Phe-Arg-Asn-Gly-Val-Gly-Ser-Gly-Val-Lys-Lys-Thr-Ser-Phe-Arg-Arg-Ala]”, the GTPγS binding activity result in test [1] is given as “enhance the GTPγS binding activity”. Besides, in test [2], the “increase of intracellular Ca ion concentration” value was “clearly enhance an increase of intracellular Ca ion concentration”.
For “SFRNGVGTGMKKTSFQRAKS [human TGR23-2 ligand (1-20)]”, the GTPγS binding activity result in test [1] is listed as “enhance the GTPγS binding activity”. Moreover, in test [2], the “increase of intracellular Ca ion concentration” value is recorded as “enhances an increase of intracellular Ca ion concentration”.
